Data as given in ChEMBL document CHEMBL3430912, “GSK Tres Cantos Anti-Kinetoplastid Screening (TCAKS) Data”.

What was measured:
[1] = tested on: Trypanosoma brucei brucei; assay: GSK_TCAKS: pIC50 Trypanosoma brucei viability assay using fluorescence intensity. Assay plates (1536-well) were prepared by dispensing 25nL of compound solution per well using an Echo acoustic dispenser (Labcyte).; assay type: functional, organism-based; conditions: Lister 427, 2 h
[2] = tested on: Trypanosoma brucei brucei; assay: GSK_TCAKS: pIC50 Trypanosoma brucei viability assay using luminiscence. Assay plates (1536-well) were prepared. T. brucei cultures were harvested and counted in a CASY cell counter. A parasite suspension was prepared at a final concentration of 5 * 10^4 cells/mL in complete HMI9 medium and 6uL was dispensed to all wells containing compounds using a Multidrop Combi dispenser. 6uL of HMI9 media with 0.4% DMSO were dispensed to control columns. Plates were incubated for 24 h at 37C, 5% CO2 then tempered for 10 min at room temperature. ATP content was quantified by adding 4 uL of CellTiter-Glo Reagent (Promega) according to the manufacturer's instructions. Luminescence was measured using a ViewLux.; assay type: functional, organism-based; conditions: Lister 427, CASY
Trypanosoma cruzi [3] = assay: (§1) GSK_TCAKS: pIC50 H2C9 Imaging: H9c2 Host Cardiomyocytes. […] Cells were then washed once with PBS before infection. T. cruzi trypomastigotes, collected at days 5 to 8 after infection from LLC-MK2 parasite infected cultures, were allowed to swim out for 4h at 37C from a centrifuged pellet (2,500 rpm/10 min/room temperature). Trypomastigotes were then collected and counted in a CASY Cell Counter. Trypomastigotes, in supplemented DMEM, were added to H9c2 cultures in a multiplicity of infection of 1 and incubated for 18 h. Cells were washed once with PBS before incubation of the infected H9c2 monolayer with trypsin (Life-Technologies) to detach cells from the flask. Cells were counted in a CASY Cell Counter using a 150 um capillary and their density set at 5 * 10^4 cells per mL in supplemented assay DMEM. Infected H9c2 were dispensed into 384-well poly-lysine coated assay plates at 50uL per well using a Multidrop Combi dispenser. After seeding them, the plates were incubated at 37C, 5% CO2 for 72h. Cultures were then fixed and stained by addition of 50 uL of a solution containing 8% formaldehyde and 4 uM DRAQ5 DNA dye (BioStatus, UK) per well. […] Five images were collected per well for reliable statistical analysis. Automated image analysis was performed with a script developed on Acapella High Content Imaging and Analysis Software (PerkinElmer). Output: Number of H9c2 Host Cardiomyocytes nuclei to determine drug-related cytotoxicity.; assay type: functional, organism-based, Rattus norvegicus; conditions: H9c2, 4 h
Leishmania donovani [4] = assay: GSK_TCAKS: pIC50 Leishmania donovani viability assay using fluorescence intensity. Assay plates (1536-well) were prepared by adding 30nL per well of compound. For single shot assay, the final compound concentration was 5uM. […] Briefly, eGFP LdBOB axenic amastigotes were harvested, fixed and counted in a CASY cell counter (Roche-Applied Science). A final concentration of 1.5 * 10^5 cells per well were prepared in amastigote media containing 500 U/mL penicillin/streptomycin (Invitrogen) and 6uL was dispensed to each experimental well using a Multidrop Combi dispenser (Thermo Scientific). 6uL of assay media was dispensed to control columns used as reference for 100% compound response. Following incubation for 72 h at 37C, 5% CO2, 2 uL of resazurin was added to each well at a final concentration of 0.5 mM in phosphate buffered saline (PBS) with IGEPAL (Sigma-Aldrich), 0.05% (v/v).; assay type: functional, organism-based
[5] = GSK_TCAKS: pIC50 HepG2 human cell line viability assay using luminiscence. […] Seeding density was checked to ensure that new mono-layers were not more than 50% confluent at the time of harvesting. Cell suspension was added to 500 mL of the same medium at a final density of 1.2 * 10^5 cells/mL. This cell suspension was dispensed (25 uL, 3000 cells per well) into 384-well clear-bottom plates using a Multidrop Combi dispenser. Prior to addition of the cell suspension, the screening compounds (250 nL) were pre-dispensed into the plates with an Echo liquid handler. Plates were incubated for 48 h at 37C, 5% CO2. After incubation, plates equilibrated at room temperature for 30 min before proceeding to develop the luminescent signal. The signal developer, CellTiter-Glo Reagent, was allowed to equilibrate at room temperature for 30 min and added to the plates (25uL per well) using a Multidrop Combi dispenser. Plates were left for 10 min at room temperature for stabilization and then read using a ViewLux.; assay type: toxicity, cell-based
Trypanosoma cruzi [6] = assay: GSK_TCAKS: pIC50 Trypanosoma cruzi viability assay using beta-GAL activity. This assay was run at single shot at 5uM compound concentration per well. The biological reagents consisted of NIH-3T3 host cells and trypomastigotes parasitic cells; both cell types were set to a 3.3 * 10^5 cells/mL dilution in assay DMEM by means of a CASY cell counter device using a 60um capillary. 6 uL of the mixture were dispensed per well (about 1 * 10^3 host-cells and 1 * 10^3 parasites) with a Multidrop Combi dispenser. […] In all wells, the percentage of DMSO never exceeded 0.5%. Plates incubated for four days at 37C, 5% CO2. The substrate used for the assay fluorescence intensity (FLINT) readout was resorufin-beta-D-galactopiranoside (Sigma-Aldrich) at 5uM per well. It was diluted in PBS supplemented with the soft detergent Igepal (Fluka).; assay type: functional, organism-based, Mus musculus; conditions: Tulahuen, NIH3T3
Trypanosoma cruzi [7] = assay: as §1, with “Trypanosoma cruzi” for “H2C9”, “Infected Cells.” for “H9c2 Host Cardiomyocytes.”, “percentage” for “Number”, “infected cells per well as a second infection marker.” for “H9c2 Host Cardiomyocytes nuclei to determine drug-related cytotoxicity.”; assay type: functional, organism-based, Rattus norvegicus; conditions: H9c2, 4 h
Leishmania donovani [8] = assay: (§2) GSK_TCAKS: pIC50 Leishmania donovani Imaging: Infected Macrophages. Assay plates (384-well) were prepared by adding 250nL of compound to each well. For single shot assay, the final compound concentration was 5 uM. […] Automated image analysis was performed with a script developed on Acapella High Content Imaging and Analysis Software (PerkinElmer). Output: Percent of infected macrophage cells were reported for each well.; assay type: functional, organism-based, Homo sapiens; conditions: THP-1
[9] = target: Sterol 14-alpha demethylase (Trypanosoma cruzi (strain CL Brener), UniProt Q7Z1V1); assay: GSK_TCAKS: pIC50 CYP51 from Trypanosoma cruzi.; assay type: functional
Trypanosoma cruzi [10] = assay: as §1, with “Trypanosoma cruzi” for “H2C9”, “Amastigotes/Cell.” for “H9c2 Host Cardiomyocytes.”, “number” for “Number”, “amastigotes per cell as infection level measurement.” for “H9c2 Host Cardiomyocytes nuclei to determine drug-related cytotoxicity.”; assay type: functional, organism-based, Rattus norvegicus; conditions: H9c2, 4 h
Leishmania donovani [11] = assay: as §2, with “THP-1 Host” for “Infected”, “THP-1 cell count” for “Percent of infected macrophage cells”; assay type: functional, organism-based, Homo sapiens
Leishmania donovani [12] = assay: as §2, with “Amastigotes/Macrophages.” for “Infected Macrophages.”, “Average number” for “Percent”, “amastigotes per” for “infected”, “cell” for “cells”; assay type: functional, organism-based, Homo sapiens; conditions: THP-1

Sterol 14-alpha demethylase, sequence (Q7Z1V1 whole entry): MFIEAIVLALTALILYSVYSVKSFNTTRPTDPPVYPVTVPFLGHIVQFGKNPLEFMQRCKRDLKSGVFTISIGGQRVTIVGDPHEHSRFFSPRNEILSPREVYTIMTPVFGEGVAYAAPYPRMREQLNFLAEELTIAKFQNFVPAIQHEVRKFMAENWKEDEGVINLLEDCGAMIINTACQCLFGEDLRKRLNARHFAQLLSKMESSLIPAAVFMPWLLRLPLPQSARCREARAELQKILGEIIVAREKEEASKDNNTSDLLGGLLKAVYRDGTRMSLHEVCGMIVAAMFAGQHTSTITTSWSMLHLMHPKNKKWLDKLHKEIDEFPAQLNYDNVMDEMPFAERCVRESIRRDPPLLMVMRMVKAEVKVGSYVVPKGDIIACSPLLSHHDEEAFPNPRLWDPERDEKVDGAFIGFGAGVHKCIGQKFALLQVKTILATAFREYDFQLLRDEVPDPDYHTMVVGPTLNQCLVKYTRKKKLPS

Row | Structure (SMILES) | IC50 [1] [µM] | IC50 [2] [µM] | IC50 (Trypanosoma cruzi [3]) [µM] | IC50 (Leishmania donovani [4]) [µM] | IC50 at 48 h [5] [µM] | IC50 (Trypanosoma cruzi [6]) [µM] | IC50 (Trypanosoma cruzi [7]) [µM] | IC50 (Leishmania donovani [8]) [µM] | IC50 [9] [µM] | IC50 (Trypanosoma cruzi [10]) [µM] | IC50 (Leishmania donovani [11]) [µM] | IC50 (Leishmania donovani [12]) [µM]
1 | O=C(CN(Cc1ccccn1)Cc1ccccn1)NCc1ccc2c(c1)OCO2 | 6.31 | 20 | > 79.4 | 12.6 | > 158 | 7.94 | 12.6 | 7.94 | 100 | 6.31 | > 79.4 | 6.31
2 | O=C(CN(Cc1ccccn1)Cc1ccccn1)NCc1csc(-c2cccs2)n1 | 20 | 15.8 | > 50.1 | 12.6 | > 100 | 3.98 | 6.31 | 6.31 | 39.8 | 2.51 | > 50.1 | 3.16
3 | Cc1nn(-c2ccccc2)nc1CNC(=O)CN(Cc1ccccn1)Cc1ccccn1 | 31.6 | 10 | > 63.1 | 7.94 | > 126 | 3.98 | 10 | 5.01 | 25.1 | 3.16 | > 63.1 | 5.01
4 | O=C(CN(Cc1ccccn1)Cc1ccccn1)NCc1ccc(-c2csnn2)cc1 | 12.6 | 7.94 | > 79.4 | 7.94 | 25.1 | 3.98 | 63.1 | 5.01 | 39.8 | 7.94 | > 79.4 | 5.01
